Laboratory results published in paper PMC3929365, “Benzimidazoisoquinolines: A New Class of Rapidly Metabolized Aryl Hydrocarbon Receptor (AhR) Ligands that Induce AhR-Dependent Tregs and Prevent Murine Graft-Versus-Host Disease” (PLoS ONE, 2014).

Key:
AhR target genes = test: Expression of known AhR target genes in Hepa1 cells (RT-qPCR); type: cell-based, mouse; settings: 10 nM, eight hours
Protocol: Supplementary file pone.0088726.s001.tif: Figure S1 10-Cl-BBQ induces the expression of known AhR target genes. Hepa1 cells were treated with 10-Cl-BBQ (10 nM), TCDD (10 nM), or vehicle (DMSO) for eight hours. RNA was extracted and RT-qPCR was performed for a select set of known AhR target genes. AHRR: aryl hydrocarbon receptor repressor, ALDH3A1: aldehyde dehydrogenase family 3; subfamily A1, CYP1b1: cytochrome P450 1b1; Gstm3: glutathione S-transferase, mu 3; GST-Ya: glutathione S transferase, alpha 1; NQO1: NAD(P)H dehydrogenase quinone 1; UGT2b34: UDP glucuronosyltransferase 2 family, polypeptide B34. (TIF) Click here for additional data file.

AhR = test: Cytosol to nuclear translocation of AhR in Hepa-1 cells; type: cell-based, mouse; settings: 10 nM, 1 h
Foxp3 = test: Lymph node gene expression (RT-qPCR) during the GVH response; type: in vivo, B6D2F1 host mice; settings: any dose (0.4, 2 or 10 mg/kg/day), lymph nodes, 48 h
Protocol: RNA was isolated from lymph nodes of B6D2F1 host mice with the RNeasy Mini Kit (Qiagen). cDNA was prepared from at least 1 µg RNA in a 2-step reaction using the ReactionReady First Strand cDNA synthesis kit (SA Biosciences) according to the manufacturer’s instructions and Superscript III reverse-transcriptase (Life Technologies). The qPCR reaction was carried out on an ABI PRISM 7500 Real-Time PCR system (Applied Biosystems). The reaction mixture consisted of SYBR Green/ROX qPCR Master Mix (SA Bioscience), 2–10 ng-RNA equivalent cDNA and 1 µl of the gene-specific commercial primer sets (SA Biosciences). The following conditions were used: 10 min at 95°C (1 cycle), 15 s at 95°C and 1 min at 60°C (40 cycles). […] The raw data was normalized to Actb and the fold-change was calculated by the ΔΔCt method using vehicle-treated sample values as the control.
Figure 3 10-Cl-BBQ induces an AhR-dependent Treg phenotype 48 h after initiating the GVH response. […] E) In the same mice as in D, lymph nodes were harvested and analyzed for expression of genes that were previously shown to increase under the same GVH conditions with TCDD treatment (13). […] Changes in gene expression were calculated relative to the β-actin gene, and the fold-induction was calculated by the ΔΔCt method using the vehicle-treated samples as a control. * = p<0.05 relative to vehicle treatment. […]

CYP1A1 mRNA = test: Hepatic CYP1A1 mRNA induction after single i.p. dose; type: in vivo, C57BL/6 mice; settings: 10 mg/kg i.p.
Protocol: RNA was isolated from lymph nodes of B6D2F1 host mice with the RNeasy Mini Kit (Qiagen). cDNA was prepared from at least 1 µg RNA in a 2-step reaction using the ReactionReady First Strand cDNA synthesis kit (SA Biosciences) according to the manufacturer’s instructions and Superscript III reverse-transcriptase (Life Technologies). The qPCR reaction was carried out on an ABI PRISM 7500 Real-Time PCR system (Applied Biosystems). The reaction mixture consisted of SYBR Green/ROX qPCR Master Mix (SA Bioscience), 2–10 ng-RNA equivalent cDNA and 1 µl of the gene-specific commercial primer sets (SA Biosciences). The following conditions were used: 10 min at 95°C (1 cycle), 15 s at 95°C and 1 min at 60°C (40 cycles). The melt-curve was generated at 95°C for 15 s. The process was validated by utilizing a no-reverse-transcriptase control. The raw data was normalized to Actb and the fold-change was calculated by the ΔΔCt method using vehicle-treated sample values as the control.
Figure 2 Pharmacokinetics of 10-Cl-BBQ. C57BL/6 mice were given 10 mg/kg 10-Cl-BBQ by i.p. injection. A) Blood was collected at the indicated times by cardiac puncture. The serum was processed to remove protein and the samples were analyzed by QTRAP 4000 LC/MS/MS. The serum concentration of 10-Cl-BBQ was determined from a standard curve based on known concentrations of 10-Cl-BBQ. B) Liver tissue was harvested and processed for mRNA analysis. CYP1A1 gene expression was determined relative to the β-actin gene, and the fold-induction was determined by the ΔΔCt method using the vehicle-treated samples as a control. The mean values are shown with SEM for 2–3 mice per time point.

Compound: O=c1c2cccc3cccc(c32)c2nc3ccc(Cl)cc3n12 [10-Cl-BBQ, 10-chloro-7H-benzimidazo[2,1-a]benzo[de]isoquinolin-7-one]
- induction of genes associated with AhR activation in hepatocytes (AhR target genes): induced a battery of genes
- cytosol to nuclear translocation of AhR (AhR): promoted cytosol to nuclear translocation of AhR
- expression of Foxp3 (Foxp3): did not induce expression of Foxp3
- Cyp1a1 mRNA induction in hepatic tissue (CYP1A1 mRNA; 4 hours): 2 fold
- Cyp1a1 mRNA induction in hepatic tissue (CYP1A1 mRNA; 20 hr): up to 7 fold
- Cyp1a1 mRNA induction in hepatic tissue (CYP1A1 mRNA; 48 h): no longer apparent
